Patent US20260315565A1, “ANTIOXIDANT-CONTAINING EYE DROP FORMULATIONS AND METHODS OF PREVENTION AND/OR TREATMENT USING SAME” (Marizyme, Inc., priority 2022, published 2026)

Tests used:
[1] = accelerated stability of ascorbic acid in eye drop formulations (UV-VIS, 260 nm); type: physicochemical; settings: stored at 40° C. for 30 days; pH 3.5 vs pH 5
Protocol: (§1) Namely, appropriate amounts of the various components were weighed and then mixed with “Water for Injection” (WFI) at room temperature in a laminar flow hood to achieve the concentrations listed in Table 1. The various components were dissolved in the WFI using a magnetic stir bar and stirring at 350 rpm, or any appropriate mixing speed, until dissolution was complete. The final pH of each formulation was adjusted to pH 3.5 or pH 5.0, as listed in Table 1, using 5N HCl or 5N NaOH, respectively. The resulting solutions were then passed through a 0.21, […] filter while filling sterile vials with the respective formulations for use in stability studies. […]
(§2) At each point in the testing schedule, physical properties, such as clarity, color, odor, particle count and the like, of the formulations stored in the pulled vials were examined by physical observation. Concentrations of the antioxidants were also measured, and analytical tests of the formulations in the vials were carried out according to the protocol listed in Table 3.
(§3) The analytical assay method for stability testing of total thiols and ascorbic acid in eyedrop formulations (UV-VIS in Table 3) are performed as follows. […] Both components are measured on one sample preparation. […] By applying the appropriate dilution and conversion factors, the concentration of each component in the formulation can be calculated. […]

[2] = accelerated stability of glutathione (total thiols) in eye drop formulations (UV-VIS with DTNB, 412 nm); type: physicochemical; settings: stored at 40° C. for 30 days
Protocol: as §1, §2, §3

Row | SMILES | stability of ascorbic acid [1] | effect of higher molar ratios of ascorbic acid on glutathione stability [2]
1 | O=C1O[C@H]([C@@H](O)CO)C(O)=C1O [ascorbic acid, L-ascorbic acid] | more stable at the lower pH of 3.5 compared to pH 5 | 
2 | N[C@@H](CCC(=O)N[C@@H](CS)C(=O)NCC(=O)O)C(=O)O [glutathione, L-glutathione] |  | destabilizing effect of higher molar ratios of ascorbic acid on glutathione
